The source of these data is US8603493B2, “Carbosilane dendrimers, preparation method thereof and use of same” (Dendrico, S.L., priority 2005, dated 2013).

Each structure is given as a SMILES string.

The subject of one data set is plasmid Nf-kappaB-luc. Briefly: Capacity to form complexes with large-sized DNA (plasmid). It counts as binding. The note with it: charge ratio (+/−)=6/1 manages to retain DNA migration. On the procedure: In a similar form to the previous experiments, electrophoresis was carried out with different samples, placing them a ladder type marker which measures up to 5000 pb in the well previous to it.

Another data set concerns PBMC. As to the kind of experiment: Transfection test of PBMC (confocal microscopy). In kind it is cell-based, human. To be noted: after 48 hours. On the procedure: After incubations with the mixtures containing fluorescent ODNs, dendriplexes, dendrimers or RPMI, the cells were treated for the subsequent acquisition of images in the conventional confocal or fluorescence microscope. The cells were adhered to glass slides with wells of 30 mm in diameter by Poly-L-lysine, (PLL) (Sigma®). To do this, the slides were preincubated with 30 μl of PLL during 2 hours in an incubator at 37° C. and 5% CO2. After this incubation, the excess PLL was washed with PBS. The cells from each treatment that were going to be adhered in the PLL were washed twice with PBS and were labelled for 1 minute with 0.8% Trypan Blue (Sigma®) to then show the […] cells. They were again washed twice with PBS. At that time the cells were added to the well (100,000/well), being disposed on the PLL during 1 hour in an incubator at 37° C. and 5% CO2. After this hour, the excess volume was washed with PBS and the cells were treated with recently prepared 3% paraformaldehyde (PFA) (within 2 weeks of its use) during 10 minutes. […] Finally, the preparation was mounted using a special medium for fluorescence (DAKO Cytomation Fluorescent Mounting Medium®) with antifading (designed to protect the sample from deterioration caused by lasers). […] After the capture of images, it was analysed using Leica® software. […]

The test system of another data set is U87-MG cells. As to the kind of experiment: Toxicity in U-87-MG cells: tests with MTT. Here is the method: A test with U-87-MG cells was performed, wherein the effect of the dendrimers on the viability of said lines was studied at different times. To do this, 15000 (24 hour incubations), 7000 (3 day incubations) or 1500 (7 day incubations) cells per well were plated in 96-well plates. The cells were incubated with different concentrations (1 μM, 5 μM and 10 μM) either NN dendrimer or NN16 dendrimer, during 24 hours, 3 days and 7 days. […] Two different positive controls were also used: cells treated with 7% DMSO and cells treated with 1% Triton X-100.
In the case of Superfect, three doses were tested, the optimum dose recommended by the manufacturer (2.5 μl), a lower dose (1.25 μl) and another higher dose (5 μl). With regard to Polyfect, specifically designed for adherent cells, the three doses tested were: optimum dose (0.6 μl), lower dose (0.3 μl) and higher dose (1.2 μl).
After each corresponding incubation time, a test was performed with MTT analogous to that described in Example 38. At the absorbance value obtained in the untreated cells (C−) it was given the value of 1 and the moiety of the absorbencies produced was used to refer to it.

The subject of the next data set is ODN TAR. Briefly: Stability of the NN-ODN dendriplex in complete medium with 10% foetal calf serum. To be noted: TAR+NN 2/1, complete medium with 10% FCS. Here is the method:
With the intention of seeing the stability of the dendriplexes in the presence of serum over time, a test was performed wherein to the samples was added complete medium which contained 10% foetal calf serum (FCS). The following samples were prepared with TAR as ODN:
As indicated, 20′ after its preparation 100 μl of complete medium were added to samples 1, 2 and 3. From each one of the samples 45 μl aliquots were taken after 40 minutes, 4 hours and 17 hours and they were subjected to electrophoresis in agarose gel. The samples were loaded in the gel following the ordering of its numbering from left to right, having previously situated a 100 bp ladder marker. In the last point (17 hours), only the 2/1 ratio complex was tested against ODN without NN. The results are shown in FIG. 7, wherein there appears a date on each one of the wells corresponding to samples with TAR+NN in 2/1 ratio.

`C[N+](C)(C)CCO[Si](C)(C)CCC[Si](C)(CCC[Si](CCC[Si](C)(CCC[Si](C)(C)OCC[N+](C)(C)C)CCC[Si](C)(C)OCC[N+](C)(C)C)(CCC[Si](C)(CCC[Si](C)(C)OCC[N+](C)(C)C)CCC[Si](C)(C)OCC[N+](C)(C)C)CCC[Si](C)(CCC[Si](C)(C)OCC[N+](C)(C)C)CCC[Si](C)(C)OCC[N+](C)(C)C)CCC[Si](C)(C)OCC[N+](C)(C)C.[I-].[I-].[I-].[I-].[I-].[I-].[I-].[I-]` [IM8, 2G-[Si(OCH2CH2NMe3^+I^−)]8]: in the data set with plasmid Nf-kappaB-luc, the “complex formation with plasmid” value is “capable of forming complexes with the plasmid used”.
Turning to `C[Si](C)(CCCN)CCC[Si](C)(CCC[Si](C)(C)CCCN)CCC[Si](CCC[Si](C)(CCC[Si](C)(C)CCCN)CCC[Si](C)(C)CCCN)(CCC[Si](C)(CCC[Si](C)(C)CCCN)CCC[Si](C)(C)CCCN)CCC[Si](C)(CCC[Si](C)(C)CCCN)CCC[Si](C)(C)CCCN.Cl.Cl.Cl.Cl.Cl.Cl.Cl.Cl` [ClNH4, 2G-[Si(CH2)3NH3^+Cl^−]8], in the data set with PBMC, the “fluorescence pattern after transfection with PPT dendriplexes” value is recorded as “fluorescence pattern in aggregates”.
On to `CN(CCO[Si](C)(C)CCC[Si](C)(CCC[Si](CCC[Si](C)(CCC[Si](C)(C)OCCN(C)CC[N+](C)(C)C)CCC[Si](C)(C)OCCN(C)CC[N+](C)(C)C)(CCC[Si](C)(CCC[Si](C)(C)OCCN(C)CC[N+](C)(C)C)CCC[Si](C)(C)OCCN(C)CC[N+](C)(C)C)CCC[Si](C)(CCC[Si](C)(C)OCCN(C)CC[N+](C)(C)C)CCC[Si](C)(C)OCCN(C)CC[N+](C)(C)C)CCC[Si](C)(C)OCCN(C)CC[N+](C)(C)C)CC[N+](C)(C)C.[I-].[I-].[I-].[I-].[I-].[I-].[I-].[I-]` [NN, 2G-[Si(O(CH2)2N(Me)(CH2)2NMe3^+I^−)]8], for which the “viability (MTT), untreated cells (C−) = 1” value in the data set with U87-MG cells is 0.6-0.75. In addition, the “time after which the NN dendrimer releases the ODN” value in the data set on ODN TAR is 17 h.
